Reference: ChEMBL document CHEMBL1201862, “PubChem BioAssay data set” (2004)
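Method: 48-hour compound exposure of cells in 96-well plates, five concentrations, linear interpolation of endpoints. At the GI50, growth is halved.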 Activity calls are given as the source filed them. No stated cut-off is given here; in the data, active = GI50 up to about 1.1 µM and inactive = higher.

Experiments:
Test in all cases: NCI tumour cell line growth inhibition, 48 h
PC-3 = tested on: PC-3
T47D = tested on: T47D
COLO 205 = tested on: COLO 205
OVCAR-3 = tested on: OVCAR-3
U-251 = tested on: U-251
SK-MEL-28 = tested on: SK-MEL-28
HT-29 = tested on: HT-29
M14 = tested on: M14
HCT-15 = tested on: HCT-15
OVCAR-4 = tested on: OVCAR-4
HL-60 = tested on: HL-60
Malme-3M = tested on: Malme-3M
NCI-H23 = tested on: NCI-H23
SK-OV-3 = tested on: SK-OV-3
OVCAR-8 = tested on: OVCAR-8
ACHN = tested on: ACHN
UACC-62 = tested on: UACC-62
A549 = tested on: A549
A498 = tested on: A498
SF-268 = tested on: SF-268
SK-MEL-5 = tested on: SK-MEL-5
SN12C = tested on: SN12C
CCRF-CEM = tested on: CCRF-CEM
MDA-MB-231 = tested on: MDA-MB-231
KM12 = tested on: KM12
OVCAR-5 = tested on: OVCAR-5
NCI/ADR-RES = tested on: NCI/ADR-RES
MDA-N = tested on: MDA-N
MOLT-4 = tested on: MOLT-4
786-0 = tested on: 786-0
MCF7 = tested on: MCF7
BT-549 = tested on: BT-549
CAKI-1 = tested on: CAKI-1
HOP-92 = tested on: HOP-92
MDA-MB-435 = tested on: MDA-MB-435
UO-31 = tested on: UO-31
TK-10 = tested on: TK-10
UACC-257 = tested on: UACC-257
HOP-62 = tested on: HOP-62
SNB-75 = tested on: SNB-75
NCI-H226 = tested on: NCI-H226
SNB-19 = tested on: SNB-19
Hs-578T = tested on: Hs-578T
DU-145 = tested on: DU-145
SF-295 = tested on: SF-295
LOX IMVI = tested on: LOX IMVI
SW-620 = tested on: SW-620
IGROV-1 = tested on: IGROV-1
NCI-H460 = tested on: NCI-H460
EKVX = tested on: EKVX
SF-539 = tested on: SF-539

Structure (SMILES): COc1cc2c(cc1OC)-c1[nH]c3ccc(C#N)cc3c1CC(=O)N2
- GI50 (PC-3): 57.5 µM (inactive)
- GI50 (T47D): > 100 µM (inactive)
- GI50 (COLO 205): 0.463 µM (active)
- GI50 (OVCAR-3): 1.42 µM (inactive)
- GI50 (U-251): 2.61 µM (inactive)
- GI50 (SK-MEL-28): > 26.3 µM (inactive)
- GI50 (HT-29): 3.88 µM (inactive)
- GI50 (M14): 8.09 µM (inactive)
- GI50 (HCT-15): 4.02 µM
- GI50 (OVCAR-4): > 30.1 µM (inactive)
- GI50 (HL-60): 3.07 µM (inactive)
- GI50 (Malme-3M): > 28.5 µM (inactive)
- GI50 (NCI-H23): 12.2 µM (inactive)
- GI50 (SK-OV-3): > 100 µM (inactive)
- GI50 (OVCAR-8): 4.2 µM (inactive)
- GI50 (ACHN): 2.32 µM (inactive)
- GI50 (UACC-62): > 84.9 µM (inactive)
- GI50 (A549): 5.26 µM (inactive)
- GI50 (A498): 7.74 µM (inactive)
- GI50 (SF-268): 1.72 µM (inactive)
- GI50 (SK-MEL-5): 3.23 µM (inactive)
- GI50 (SN12C): 5.04 µM (inactive)
- GI50 (CCRF-CEM): 1.56 µM (inactive)
- GI50 (MDA-MB-231): > 100 µM (inactive)
- GI50 (KM12): 1.71 µM (inactive)
- GI50 (OVCAR-5): 3.69 µM (inactive)
- GI50 (NCI/ADR-RES): > 100 µM (inactive)
- GI50 (MDA-N): 2.48 µM (inactive)
- GI50 (MOLT-4): 2.65 µM (inactive)
- GI50 (786-0): 3.68 µM (inactive)
- GI50 (MCF7): 4.71 µM (inactive)
- GI50 (BT-549): 10.5 µM (inactive)
- GI50 (CAKI-1): 1.56 µM (inactive)
- GI50 (HOP-92): > 100 µM (inactive)
- GI50 (MDA-MB-435): 8.79 µM (inactive)
- GI50 (UO-31): 2.11 µM (inactive)
- GI50 (TK-10): > 27 µM (inactive)
- GI50 (UACC-257): > 52 µM (inactive)
- GI50 (HOP-62): 3.86 µM (inactive)
- GI50 (SNB-75): 0.44 µM (active)
- GI50 (NCI-H226): 3.8 µM (inactive)
- GI50 (SNB-19): > 100 µM (inactive)
- GI50 (Hs-578T): 0.861 µM (active)
- GI50 (DU-145): 3.33 µM (inactive)
- GI50 (SF-295): 6.14 µM (inactive)
- GI50 (LOX IMVI): 2.09 µM (inactive)
- GI50 (SW-620): 1.03 µM (active)
- GI50 (IGROV-1): 0.759 µM (active)
- GI50 (NCI-H460): 5.31 µM (inactive)
- GI50 (EKVX): 22.2 µM (inactive)
- GI50 (SF-539): 0.521 µM (active)
